Test results taken from publication PMC9064011 (RSC Advances, 2019).

Tests used:
[1] = test system: Hypoxia Inducible Factor-1 (HIF-1) pathway; test: cells; details: Homo sapiens, HeLa, 12 h, read-out: HRE IC50
MCF-7 cells = test: MTT assay for tumor cell growth inhibition, MCF-7; assay type: cell-based; details: Homo sapiens, MCF7, 48 h, read-out: IC50 MCF-7
HeLa cells = test: MTT cell growth inhibition; assay type: cell-based; details: Homo sapiens
L-O2 cells = test: MTT assay for cell growth inhibition, L-O2; assay type: cell-based; details: Homo sapiens, L02, 48 h, read-out: IC50 L-O2
HepG2 cells = test: MTT assay for tumor cell growth inhibition, HepG2; assay type: cell-based; details: Homo sapiens, HepG2, 48 h, read-out: IC50 HepG2
[2] = test system: Hypoxia Inducible Factor-1 (HIF-1) pathway; details: dual luciferase reporter system
[3] = test system: hypoxia inducible factor-1 (HIF-1) transcription; details: dual luciferase reporter assay, previous work in our laboratory, ref unpublished; cited from earlier work
H322 cell = details: previous work in our laboratory, ref unpublished; cited from earlier work

Compound | IC50 [1] [µM] | IC50 (MCF-7 cells) [µM] | GI50 (HeLa cells) [µM] | IC50 (HepG2 cells) [µM] | IC50 (L-O2 cells) [µM] | HIF inhibitory activity (in words) [2] | inhibitory activity on HIF-1 transcription [3] | cytotoxicity against H322 cell (H322 cell)
COC(=O)c1c(C#Cc2ccc(OC)cc2)cccc1-c1ccc(OC)cc1 [Compound 1a, Methyl 4′-methoxy-3-((4-methoxyphenyl)ethynyl)-[1,1′-biphenyl]-2-carboxylate] | 5.41 ± 1.1 | > 100 | > 100 | > 100 | > 100 |  |  | 
COc1ccc(C#Cc2cccc(-c3ccc(OC)cc3)c2C(=O)O)cc1 [Compound 1b, 4′-Methoxy-3-((4-methoxyphenyl)ethynyl)-[1,1′-biphenyl]-2-carboxylic acid] | 20.7 ± 2.5 | > 100 | > 100 | > 100 | > 100 |  |  | 
COc1ccc(C#Cc2cccc(-c3ccc(OC)cc3)c2C(=O)c2ccc(OC)cc2)cc1 [Compound 1c, (4′-Methoxy-3-((4-methoxyphenyl)ethynyl)-[1,1′-biphenyl]-2-yl)(4-methoxyphenyl)methanone] | 2.36 ± 0.4 | 7.18 ± 1.2 | 3.75 ± 0.2 |  |  |  |  | 
COc1ccc(C(=O)c2c(C#Cc3ccc(O)cc3)cccc2-c2ccc(O)cc2)cc1 [Compound 1d, (4′-Hydroxy-3-((4-hydroxyphenyl)ethynyl)-[1,1′-biphenyl]-2-yl)(4-methoxyphenyl)methanone] | 9.52 ± 0.4 | 51.2 ± 0.6 | 44.81 ± 0.2 | 54.8 ± 1.9 | 64 ± 1 |  |  | 
O=c1oc(-c2ccc(O)cc2)cc2cccc(-c3ccc(O)cc3)c12 [Compound 1e, 3,8-Bis(4-hydroxyphenyl)-1H-isochromen-1-one] | 13.7 ± 0.4 | 95.57 ± 0.4 | 86.31 ± 0.5 | 55.5 ± 1.9 | 92.5 ± 2 |  |  | 
Cc1ccc(-c2ccc(O)cc2)c(C(=C2C=CC(=O)C=C2)c2ccccc2)c1C#Cc1ccc(O)cc1 [selaginellin A] |  |  |  |  |  |  | displayed inhibitory activity | moderately cytotoxic
Cc1ccc(-c2ccc(O)cc2)c(C(=C2C=CC(=O)C=C2)c2ccc(O)cc2)c1C#Cc1ccc(O)cc1 [selaginellin B] |  |  |  |  |  |  |  | moderately cytotoxic

Now from value to compound, other results behind:

IC50 [1] [µM] | IC50 (MCF-7 cells) [µM] | GI50 (HeLa cells) [µM] | IC50 (HepG2 cells) [µM] | Compound | IC50 (L-O2 cells) [µM] | HIF inhibitory activity (in words) [2] | inhibitory activity on HIF-1 transcription [3] | cytotoxicity against H322 cell (H322 cell)
18.3 ± 1.6 | > 100 | > 100 | > 100 | COC(=O)c1cc(C#Cc2ccc(OC)cc2)ccc1-c1ccc(OC)cc1 [Compound 2a, Methyl 4′-methoxy-4-((4-methoxyphenyl)ethynyl)-[1,1′-biphenyl]-2-carboxylate] | > 100 |  |  | 
15.6 ± 1.6 | > 100 | > 100 | > 100 | COc1ccc(C#Cc2ccc(-c3ccc(OC)cc3)c(C(=O)O)c2)cc1 [Compound 2b, 4′-Methoxy-4-((4-methoxyphenyl)ethynyl)-[1,1′-biphenyl]-2-carboxylic acid] | > 100 |  |  | 
39.9 ± 3.1 | > 100 | > 100 | > 100 | COc1ccc(C#Cc2ccc(-c3ccc(OC)cc3)c(C(=O)c3ccc(OC)cc3)c2)cc1 [Compound 2c, (4′-Methoxy-4-((4-methoxyphenyl)ethynyl)-[1,1′-biphenyl]-2-yl)(4-methoxyphenyl)methanone] | > 100 |  |  | 
4.47 ± 0.6 | 6.49 ± 0.1 | 3.24 ± 0.1 | 24.99 ± 0.1 | COc1ccc(C(=O)c2cc(C#Cc3ccc(O)cc3)ccc2-c2ccc(O)cc2)cc1 [Compound 2d, (4′-Hydroxy-4-((4-hydroxyphenyl)ethynyl)-[1,1′-biphenyl]-2-yl)(4-methoxyphenyl)methanone] | 7.83 ± 1.2 |  |  | 
20.8 ± 0.8 | > 100 | > 100 | > 100 | COc1ccc(C#Cc2ccc(-c3ccc(OC)cc3)c(C(O)(c3ccc(OC)cc3)c3ccc(OC)cc3)c2)cc1 [Compound 2e, (4′-Methoxy-4-((4-methoxyphenyl)ethynyl)-[1,1′-biphenyl]-2-yl)bis(4-methoxyphenyl)methanol] | > 100 |  |  | 
1.89 ± 0.4 | > 100 | > 100 | > 100 | CCCCC(O)(c1ccc(OC)cc1)c1cc(C#Cc2ccc(OC)cc2)ccc1-c1ccc(OC)cc1 (stereo not shown) [Compound 2f, 1-(4′-methoxy-4-((4-methoxyphenyl)ethynyl)-[1,1′-biphenyl]-2-yl)-1-(4-methoxyphenyl)pentan-1-ol] | > 100 |  |  | 
8.1 ± 1.4 | 13 ± 0.7 | 15.48 ± 0.1 | 15.1 ± 0.6 | COc1ccc(-c2ccc(C#Cc3ccc(O)cc3)cc2C(O)(c2ccc(OC)cc2)c2ccc(OC)cc2)cc1 [Compound 2g, 4-((2-(Hydroxybis(4-methoxyphenyl)methyl)-4′-methoxy-[1,1′-biphenyl]-4-yl)ethynyl)phenol] | 16.4 ± 1.3 |  |  | 
2.52 ± 0.4 | 11.9 ± 0.5 | 10.8 ± 0.3 | 11.8 ± 0.8 | COc1ccc(C(O)(c2ccc(OC)cc2)c2cc(C#Cc3ccc(O)cc3)ccc2-c2ccc(O)cc2)cc1 [Compound 2h, 2′-(hydroxybis(4-methoxyphenyl)methyl)-4′-((4-hydroxyphenyl)ethynyl)-[1,1′-biphenyl]-4-ol] | 10.6 ± 1.1 |  |  | 
5.55 ± 1.3 | 9.23 | 7.58 ± 0.1 | 8.96 ± 0.4 | COc1ccc(C2(c3ccc(OC)cc3)c3cc(O)ccc3-c3ccc(C#Cc4ccc(O)cc4)cc32)cc1 [Compound 2i, 7-((4-Hydroxyphenyl)ethynyl)-9,9-bis(4-methoxy-phenyl)-9H-fluoren-2-ol] | 10.9 ± 1 |  |  | 
 | 12.1 ± 0.1 | 4.47 ± 0.5 | 11.6 ± 0.6 | COc1ccc(C(=C2C=CC(=O)C=C2)c2cc(C#Cc3ccc(O)cc3)ccc2-c2ccc(O)cc2)cc1 [Compound 2j, 4-((4′-Hydroxy-4-((4-hydroxyphenyl)ethynyl)-[1,1′-biphenyl]-2-yl)(4-methoxyphenyl)methylene)cyclohexa-2,5-dien-1-one] | 11.1 ± 0.7 | little HIF inhibitory activity |  | 
